One may read the pIC50 as the negative decadic logarithm of the IC50, by convention in mol/L. The pKi is the negative decadic logarithm of the Ki, by convention in mol/L. For orientation: solubility means the concentration that dissolves in the medium under given conditions.

pIC50, pKi: −log10 of the molar value.

For data set [1], the target named is T1, CYP2C9 (Homo sapiens, UniProt P11712).
T1 construct: enzyme, pooled human hepatic microsome 0.2 mg protein/mL; from tissue; host or cells: pooled human liver microsomes
Description: Test Example 6: CYP inhibition test, tolbutamide methyl-hydroxylation (CYP2C9). In kind it is in vitro ADME. As to conditions: pooled human hepatic microsome, 100 μmol/L tolbutamide. The method, then: (§1) Test Example 6 CYP Inhibition Test […] The reaction conditions were as follows: substrate, 0.5 μmol/L ethoxyresorufin (CYP1A2), 100 μmol/L tolbutamide (CYP2C9), 50 μmol/L S-mephenytoin (CYP2C19), 5 μmol/L dextromethorphan (CYP2D6), 1 μmol/L terfenedine (CYP3A4); reaction time, 15 minutes; reaction temperature, 37° C.; enzyme, pooled human hepatic microsome 0.2 mg protein/mL; concentration of the compound of the present invention, 1, 5, 10, 20 μmol/L (four points). Each five kinds of substrates, human hepatic microsome, and the compound of the present invention in 50 mmol/L Hepes buffer as a reaction solution were added to a 96-well plate at the composition as described above. NADPH, as a cofactor was added to initiate metabolism reactions as markers and, after the incubation at 37° C. for 15 minutes, a methanol/acetonitrile=1/1 (v/v) solution was added to stop the reaction. After the centrifugation at 3000 rpm for 15 minutes, resorufin (CYP1A2 metabolite) in the supernatant was quantified by a fluorescent multilabel counter and toltributamide hydroxide (CYP2[…] metabolite), mephenytoin 4' hydroxide (CYP2C19 metabolite), […], and terfenadine alcohol (CYP3A4 metabolite) were quantified by LC/MS/MS. Addition of only DMSO being a solvent dissolving the compound of the present invention to a reaction system was adopted as a control (100%). Remaining activity (%) was calculated at each concentration of the compound of the present invention added as the solution and IC50 was calculated by reverse presumption by a logistic model using a concentration and an inhibition rate.

The target in data set [2] is T2, CYP3A4 (Homo sapiens, UniProt P08684).
T2 construct: enzyme, pooled human hepatic microsome 0.2 mg protein/mL; from tissue; host or cells: pooled human liver microsomes
Description: Test Example 6: CYP inhibition test, terfenedine hydroxylation (CYP3A4). As to conditions: pooled human hepatic microsome, 1 μmol/L terfenedine. In kind it is in vitro ADME. On the procedure: as §1

Data set [3] addresses T3, CYP2D6 (Homo sapiens, UniProt P10635).
T3 construct: enzyme, pooled human hepatic microsome 0.2 mg protein/mL; from tissue; host or cells: pooled human liver microsomes
Kind of data set: Test Example 6: CYP inhibition test, dextromethorphan O-demethylation (CYP2D6). It is filed as in vitro ADME. The conditions noted are these: pooled human hepatic microsome, 5 μmol/L dextromethorphan. On the procedure:
as §1

The target in data set [4] is T4, CYP2C19 (Homo sapiens, UniProt P33261).
T4 construct: enzyme, pooled human hepatic microsome 0.2 mg protein/mL; from tissue; host or cells: pooled human liver microsomes
Kind of data set: Test Example 6: CYP inhibition test, mephenytoin 4′-hydroxylation (CYP2C19). In kind it is in vitro ADME. The conditions noted are these: pooled human hepatic microsome, 50 μmol/L S-mephenytoin. The method, then:
as §1

Data set [5] addresses T5, human TRPV4 (hTRPV4/CHO cells) (Homo sapiens, UniProt Q9HBA0).
T5 construct: expressed in transfected cells; host or cells: CHO-K1
Description: Test Example 4: TRPV4 inhibitory activity (Ki value), 4α-PDD stimulation, Fluo-3 calcium fluorescence (FDSS 3000). The conditions noted are these: Test Example 4, 4α-PDD stimulation, read-out: Test 4 Ki. In kind it is cell-based. In a few lines:
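hTRPV4/CHO-K1 cells loaded with 5 μmol/L Fluo-3 in HBSS/HEPES pH 7.5 with probenecid; compound (10 μmol/L to 0.5 nmol/L final, 10 points) added before 4α-PDD, fluorescence read 8 min at Ex 480/Em 540 nm. Max−Min signal normalised to 10 μM Ruthenium Red (100%) and no compound (0%); IC50 converted to Ki using 4α-PDD EC50.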

The target of data set [6] is T6, CYP1A2 (Homo sapiens, UniProt P05177).
T6 construct: enzyme, pooled human hepatic microsome 0.2 mg protein/mL; from tissue; host or cells: pooled human liver microsomes
T6 sequence (P05177 1-516): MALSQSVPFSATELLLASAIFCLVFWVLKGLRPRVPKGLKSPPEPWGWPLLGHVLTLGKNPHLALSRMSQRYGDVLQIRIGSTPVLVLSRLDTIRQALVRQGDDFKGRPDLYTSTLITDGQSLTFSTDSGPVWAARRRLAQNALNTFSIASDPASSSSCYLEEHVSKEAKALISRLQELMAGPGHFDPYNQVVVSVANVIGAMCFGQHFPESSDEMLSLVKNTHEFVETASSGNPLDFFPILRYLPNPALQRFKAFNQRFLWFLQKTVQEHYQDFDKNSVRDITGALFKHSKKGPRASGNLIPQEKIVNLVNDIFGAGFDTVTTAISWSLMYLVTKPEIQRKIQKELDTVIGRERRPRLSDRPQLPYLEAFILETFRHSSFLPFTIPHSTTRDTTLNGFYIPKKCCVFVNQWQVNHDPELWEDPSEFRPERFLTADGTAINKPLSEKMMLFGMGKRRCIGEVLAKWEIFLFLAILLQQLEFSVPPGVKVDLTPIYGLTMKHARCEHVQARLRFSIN
Kind of data set: Test Example 6: CYP inhibition test, 7-ethoxyresorufin O-deethylation (CYP1A2). In kind it is in vitro ADME. As to conditions: pooled human hepatic microsome, 0.5 μmol/L ethoxyresorufin. On the procedure: as §1

Data set [7] can be described thus: Test Example 8: Solubility test. In kind it is physicochemical. The conditions noted are these: fassgf or other biorelevant, kinetic from dmso stock; 1% DMSO addition, artificial intestinal juice pH 6.8, 16 hours at 25° C. The method, then:
The solubility of a compound of the present invention was determined under 1% DMSO addition conditions. A 10 mmol/L solution of the compound was prepared with DMSO, and 6 μL of the solution of the compound of the present invention was added to 594 μL of an artificial intestinal juice (water and 118 mL of 0.2 mol/L NaOH reagent were added to 250 mL of 0.2 mol/L potassium dihydrogen phosphate reagent to reach 1000 mL) with a pH of 6.8. The mixture was left standing for 16 hours at 25° C., and the mixture was vacuum-filtered. The filtrate was two-fold diluted with methanol/water=1/1 (V/V), and the compound concentration in the filtrate was measured with HPLC or LC/MS/MS by the absolute calibration method.

Data set [8] concerns the target T5, human TRPV4 (hTRPV4/CHO cells). Description: Test Example 1: TRPV4 inhibitory activity (IC50 value), 4α-PDD stimulation, Fluo4 calcium fluorescence (FLIPR TETRA). It is filed as cell-based. The conditions noted are these: Test Example 1, 4α-PDD stimulation, read-out: Test 1 IC50.
Data set [9] can be described thus: Test Example 9: Metabolism stability test. It is filed as in vitro ADME. As to conditions: human liver microsomes 0.5 mg protein/mL, 30 minutes at 37° C., NADPH, compound concentration 0.5 μmol/L. The method, then: Metabolism Stability Test
Using a commercially available pooled human hepatic microsomes, a compound of the present invention was reacted for a constant time, a remaining rate was calculated by comparing a reacted sample and an unreacted sample, thereby, a degree of metabolism in liver was assessed.
A reaction was performed (oxidative reaction) at 37° C. for 0 minute or 30 minutes in the presence of 1 mmol/L NADPH in 0.2 mL of a buffer (50 mmol/L Tris-HCl pH 7.4, 150 mmol/L potassium chloride, 10 mmol/L magnesium chloride) containing 0.5 mg protein/mL of human liver microsomes. After the reaction, 50 μL of the reaction mixture was added to 100 μL of a methanol/acetonitrile=1/1 (v/v), mixed and centrifuged at 3000 rpm for 15 minutes. The compound of the present invention in the supernatant was quantified by LC/MS/MS, and a remaining amount of the compound of the present invention after the reaction was calculated, letting a compound amount at 0 minute reaction time to be 100%. Hydrolysis reaction was performed in the absence of NADPH and glucuronidation reaction was in the presence of 5 mmol/L UDP-glucuronic acid in place of NADPH, followed by similar operations.
(Results) Compound concentration: 0.5 μmol/L
On the technique in general: Liver microsomes are vesicles of endoplasmic reticulum, rich in cytochrome P450 enzymes.

Data set [10] deals with T7, CYP3A4 enzyme expressed in Escherichia coli (Homo sapiens, UniProt P08684).
T7 construct: host or cells: Escherichia coli
Description: Test Example 5: CYP3A4 fluorescent MBI test. In kind it is in vitro ADME. As to conditions: substrate 7-BFC, pre-reaction 30 minutes, compound 0.625-20 μmol/L. The method, then:
CYP3A4 Fluorescent MBI Test
The CYP3A4 fluorescent MBI test is a test of investigating enhancement of CYP3A4 inhibition of a compound of the present invention by a metabolism reaction, and the test was performed using, as CYP3A4 enzyme expressed in Esherichia coli and employing, as an index, a reaction in which 7-benzyloxytrifluoromethylchmarin (7-BFC) is debenzylated by the CYP3A4 enzyme to produce a metabolite, 7-hydroxytrifluoromethylchmarin (HFC) emitting fluorescent light.
The reaction conditions were as follows: substrate, 5.6 μmol/L 7-BFC; pre-reaction time, […] or 30 minutes; reaction time, 15 minutes; reaction temperature, 25° C. […]
An enzyme in a K-Pi buffer (pH 7.4) and a solution of the compound of the present invention as a pre-reaction solution were added to a 96-well plate at the above composition of the pre-reaction. […] For the plate on which each index reaction had been performed, a fluorescent value of 7-HFC which is a metabolite was measured with a fluorescent plate reader. […]
Addition of only DMSO which is a solvent dissolving the compound of the present invention to a reaction system was adopted as a control (100%). Remaining activity (%) was calculated at each concentration of the compound of the present invention added as the solution, and IC50 was calculated by reverse-presumption by a logistic model using a concentration and an inhibition rate. […]

T5 sequence (Q9HBA0 whole entry): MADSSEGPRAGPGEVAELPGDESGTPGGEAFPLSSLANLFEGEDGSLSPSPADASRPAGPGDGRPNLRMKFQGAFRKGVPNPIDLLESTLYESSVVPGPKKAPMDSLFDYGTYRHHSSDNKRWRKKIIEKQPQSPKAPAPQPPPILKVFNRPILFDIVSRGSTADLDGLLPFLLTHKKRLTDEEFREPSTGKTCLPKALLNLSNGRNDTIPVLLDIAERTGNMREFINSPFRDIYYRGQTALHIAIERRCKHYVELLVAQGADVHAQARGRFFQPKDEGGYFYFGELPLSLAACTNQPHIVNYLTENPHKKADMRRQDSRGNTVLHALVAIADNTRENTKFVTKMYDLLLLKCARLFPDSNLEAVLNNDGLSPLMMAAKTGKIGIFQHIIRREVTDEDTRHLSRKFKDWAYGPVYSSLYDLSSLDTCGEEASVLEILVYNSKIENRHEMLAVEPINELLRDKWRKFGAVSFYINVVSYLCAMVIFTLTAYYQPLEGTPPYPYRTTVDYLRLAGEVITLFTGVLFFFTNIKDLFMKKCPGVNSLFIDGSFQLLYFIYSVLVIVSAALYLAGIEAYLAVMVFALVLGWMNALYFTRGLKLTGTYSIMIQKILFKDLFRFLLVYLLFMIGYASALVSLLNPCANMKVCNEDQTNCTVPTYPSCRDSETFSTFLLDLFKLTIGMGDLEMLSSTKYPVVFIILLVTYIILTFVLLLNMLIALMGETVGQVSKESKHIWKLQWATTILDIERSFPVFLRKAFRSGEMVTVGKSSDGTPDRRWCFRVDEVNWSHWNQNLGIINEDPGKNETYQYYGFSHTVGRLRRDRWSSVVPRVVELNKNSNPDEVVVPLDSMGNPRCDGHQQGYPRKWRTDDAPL
T2 sequence (P08684 whole entry): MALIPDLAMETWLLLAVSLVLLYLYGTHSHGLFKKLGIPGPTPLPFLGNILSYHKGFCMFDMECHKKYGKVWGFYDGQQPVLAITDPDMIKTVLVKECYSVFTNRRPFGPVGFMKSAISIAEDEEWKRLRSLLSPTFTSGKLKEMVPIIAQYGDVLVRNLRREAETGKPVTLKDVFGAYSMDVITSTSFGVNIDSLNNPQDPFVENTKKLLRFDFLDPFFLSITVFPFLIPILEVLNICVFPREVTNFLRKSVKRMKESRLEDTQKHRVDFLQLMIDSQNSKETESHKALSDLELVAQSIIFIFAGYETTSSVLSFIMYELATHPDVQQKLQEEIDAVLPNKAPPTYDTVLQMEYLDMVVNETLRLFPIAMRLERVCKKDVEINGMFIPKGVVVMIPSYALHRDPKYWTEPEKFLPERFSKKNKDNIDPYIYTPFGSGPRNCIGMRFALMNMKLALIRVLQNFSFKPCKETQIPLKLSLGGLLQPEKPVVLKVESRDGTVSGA
T3 sequence (P10635 whole entry): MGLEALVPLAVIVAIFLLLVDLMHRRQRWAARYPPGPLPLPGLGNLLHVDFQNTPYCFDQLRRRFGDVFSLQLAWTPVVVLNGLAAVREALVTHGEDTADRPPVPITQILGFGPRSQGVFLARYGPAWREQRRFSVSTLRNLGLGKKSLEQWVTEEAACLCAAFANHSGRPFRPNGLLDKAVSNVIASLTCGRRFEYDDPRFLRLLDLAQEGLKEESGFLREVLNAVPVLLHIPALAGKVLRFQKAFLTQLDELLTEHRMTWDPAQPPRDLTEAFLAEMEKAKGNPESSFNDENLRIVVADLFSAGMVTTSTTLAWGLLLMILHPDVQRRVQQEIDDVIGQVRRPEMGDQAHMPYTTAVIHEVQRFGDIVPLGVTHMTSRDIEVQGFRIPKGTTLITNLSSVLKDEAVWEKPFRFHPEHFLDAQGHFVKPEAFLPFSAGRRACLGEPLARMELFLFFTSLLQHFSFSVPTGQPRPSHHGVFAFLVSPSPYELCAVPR
T1 sequence (P11712 whole entry): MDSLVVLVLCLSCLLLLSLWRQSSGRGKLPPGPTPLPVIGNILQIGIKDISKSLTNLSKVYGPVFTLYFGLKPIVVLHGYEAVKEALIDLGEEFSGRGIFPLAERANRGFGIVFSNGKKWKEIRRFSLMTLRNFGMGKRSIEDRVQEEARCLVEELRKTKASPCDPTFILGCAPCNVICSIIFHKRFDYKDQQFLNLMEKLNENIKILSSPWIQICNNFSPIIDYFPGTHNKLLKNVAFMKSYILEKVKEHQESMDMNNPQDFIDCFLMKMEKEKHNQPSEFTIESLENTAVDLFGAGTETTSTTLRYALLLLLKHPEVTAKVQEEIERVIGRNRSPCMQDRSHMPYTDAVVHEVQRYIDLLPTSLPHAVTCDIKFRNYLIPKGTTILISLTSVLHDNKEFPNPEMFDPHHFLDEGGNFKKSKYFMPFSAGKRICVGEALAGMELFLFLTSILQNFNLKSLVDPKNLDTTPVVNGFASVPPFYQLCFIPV
T4 sequence (P33261 whole entry): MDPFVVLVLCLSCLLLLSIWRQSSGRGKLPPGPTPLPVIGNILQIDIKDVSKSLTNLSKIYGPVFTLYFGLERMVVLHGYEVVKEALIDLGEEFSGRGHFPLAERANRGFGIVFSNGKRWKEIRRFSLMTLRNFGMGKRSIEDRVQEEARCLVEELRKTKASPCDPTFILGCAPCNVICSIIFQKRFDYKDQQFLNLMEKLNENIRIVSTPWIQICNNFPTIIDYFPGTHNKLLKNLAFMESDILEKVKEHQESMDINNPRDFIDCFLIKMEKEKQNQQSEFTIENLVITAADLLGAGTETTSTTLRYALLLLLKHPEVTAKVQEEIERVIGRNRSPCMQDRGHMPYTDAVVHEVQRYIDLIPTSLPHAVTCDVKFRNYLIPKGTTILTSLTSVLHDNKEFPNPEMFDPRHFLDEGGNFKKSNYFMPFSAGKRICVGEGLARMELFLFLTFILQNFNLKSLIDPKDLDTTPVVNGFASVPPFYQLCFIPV
T7 sequence (P08684 whole entry): as the sequence (P08684 whole entry) above

With `Cc1nc(C)c(-c2csc(NC(=O)[C@@H]3CCC(=O)N3)n2)s1` [Compound I-42], the negative-log IC50 (pIC50) in data set [1], in data set [2], in data set [3], in [4] and in [6] was less than 4.70 throughout. The negative logarithm of the Ki (pKi) in data set [5] was 5.52 to 6.00.

`Cc1nc(CN(C)C)sc1-c1csc(NC(=O)Cc2c(F)cccc2F)n1` [Compound I-81] returned a solubility at 16 h in [7] greater than 50 µM. For the same compound, the negative-log IC50 (pIC50) in data set [8] is 5.10 to 6.00.

On to `Cc1nc(CO)sc1-c1csc(NC(=O)C2CCC(F)(F)C2)n1` (stereo not drawn) [Compound I-95], for which the “Metabolism stability: remaining amount of the compound after the reaction” value in data set [9] is given as 99.4%. For the same compound, the pIC50 is less than 4.70 in data set [1]; less than 4.70 in [2]; less than 4.70 in [3]; 6.00 to 7.00 in data set [8]; less than 4.70 in data set [4]; less than 4.70 in [6].

In the case of `Cc1nc(C(=O)NO)sc1-c1csc(NC(=O)Cc2c(F)cccc2F)n1` [Compound I-107], in data set [10], the “CYP3A4 fluorescent MBI test: difference between IC50 values without and with preincubation” value is reported as “(−) (when the difference is 3 μM or less, this was defined as (−))”. Also, the pIC50 was less than 4.70 in [1]; less than 4.70 in data set [2]; less than 4.70 in data set [3]; 6.00 to 7.00 in data set [8]; less than 4.70 in data set [4]; less than 4.70 in data set [6].

Regarding `Cc1nc(C)c(-c2csc(NC(=O)Cn3cc(Cl)cn3)n2)s1` [Compound I-116], the pIC50 is less than 4.70 in data set [1]; less than 4.70 in [2]; less than 4.70 in [3]; 5.10 to 6.00 in [8]; less than 4.70 in data set [4]; less than 4.70 in data set [6].

The compound `Cc1nc(C)c(-c2csc(NS(=O)(=O)Cc3ccccc3)n2)s1` [II-1] displayed a solubility at 16 h in data set [7] greater than 50 µM. In data set [5], the pKi was 5.52 to 6.00.

Values taken from patent US20170066759A1, “AROMATIC 5-MEMBERED HETEROCYCLIC DERIVATIVE HAVING TRPV4-INHIBITING ACTIVITY” (Shionogi & Co., Ltd., priority 2012, published 2017).
